The values below come from publication PMC7580763, “Novel insights on saccharin- and acesulfame-based carbonic anhydrase inhibitors: design, synthesis, modelling investigations and biological activity evaluation” (Journal of Enzyme Inhibition and Medicinal Chemistry, 2020).

hCA XII, sequence (O43570 25-354): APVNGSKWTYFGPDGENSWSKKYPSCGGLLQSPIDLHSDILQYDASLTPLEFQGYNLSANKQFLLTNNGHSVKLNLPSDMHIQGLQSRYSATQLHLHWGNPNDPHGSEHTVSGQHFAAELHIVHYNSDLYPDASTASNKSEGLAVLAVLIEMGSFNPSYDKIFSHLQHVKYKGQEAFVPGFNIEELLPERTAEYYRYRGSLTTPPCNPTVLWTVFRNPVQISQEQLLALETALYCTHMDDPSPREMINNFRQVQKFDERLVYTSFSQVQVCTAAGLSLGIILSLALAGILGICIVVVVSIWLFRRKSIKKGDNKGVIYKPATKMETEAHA

For the first test, the target named is hCA I (Homo sapiens, UniProt P00915). Description: CA inhibition, stopped-flow CO2 hydrase assay, hCA I. It counts as biochemical.
hCA I, sequence (P00915 whole entry): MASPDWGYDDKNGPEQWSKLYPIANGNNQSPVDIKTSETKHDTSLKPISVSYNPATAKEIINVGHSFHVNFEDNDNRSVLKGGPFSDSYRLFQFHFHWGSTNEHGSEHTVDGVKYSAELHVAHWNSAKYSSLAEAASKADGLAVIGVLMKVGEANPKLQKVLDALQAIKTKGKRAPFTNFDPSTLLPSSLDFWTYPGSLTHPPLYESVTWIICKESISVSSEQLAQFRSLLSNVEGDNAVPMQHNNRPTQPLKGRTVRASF
Conditions: not given
On the procedure:
(§1) An Applied Photophysics stopped-flow instrument has been used for assaying the CA-catalyzed CO2 hydration activity. […] The initial rates of the CA-catalysed CO2 hydration reaction were followed for a period of 10−100 s. The CO2 concentrations ranged from 1.7 to 17 mM for the determination of the kinetic parameters and inhibition constants. […] The uncatalyzed rates were determined in the same manner and subtracted from the total observed ones. Stock solutions of each inhibitor (0.1 mM) were prepared in distilled − deionized water and dilutions up to 0.01 nM were done thereafter with distilled − deionized water. Inhibitor and enzyme solutions were preincubated together for 15 min at room temperature prior to assay to allow for the formation of the E−I complex. The inhibition constants were obtained by nonlinear least-squares methods using the Cheng-Prusoff equation and represent the mean from at least three different determinations. […] Human CA isoforms were recombinant enzymes obtained in-house as reported earlier.
`CC(C)=CCN1C(=O)c2ccccc2S1(=O)=O` [Compound 1]: the inhibitory constant (Ki) (usually a measure of affinity in units of concentration, obtained from inhibition or displacement) is greater than 1000 µM.

Take `O=C1c2ccccc2S(=O)(=O)N1Cc1ccccc1Cl` [Compound 2]: the “inhibitory activity against hCA I, in words” value is on record as “ineffective”.

For `O=C1c2ccccc2S(=O)(=O)N1Cc1cccc(Cl)c1` [Compound 3], the “inhibitory activity against hCA I, in words” value is given as “ineffective”.

For the compound `O=C(CN1C(=O)c2ccccc2S1(=O)=O)c1cccc([N+](=O)[O-])c1` [Compound 4], the “inhibitory activity against hCA I, in words” value is “ineffective”.

The same test, now with this note: Table 1, saccharin-based derivatives; recombinant enzyme, 15 min preincubation, pH 7.5.
As to `CC(C)=CCN1C(=O)c2ccccc2S1(=O)=O` [Compound 1], the Ki is greater than 1000 µM.

Take `O=C1c2ccccc2S(=O)(=O)N1Cc1ccccc1Cl` [Compound 2]: the Ki was greater than 1000 µM.

For `O=C1c2ccccc2S(=O)(=O)N1Cc1cccc(Cl)c1` [Compound 3], the Ki is greater than 1000 µM.

Take `O=C(CN1C(=O)c2ccccc2S1(=O)=O)c1cccc([N+](=O)[O-])c1` [Compound 4]: the Ki is greater than 1000 µM.

`COC(=O)c1ccccc1S(=O)(=O)Nc1ccccc1` [Compound 5]: the Ki is greater than 1000 µM.

Consider `COC(=O)c1ccccc1S(=O)(=O)Nc1ccc(F)cc1` [Compound 6], for which the Ki is greater than 1000 µM.

In the case of `COC(=O)c1ccccc1S(=O)(=O)Nc1ccccc1Cl` [Compound 7], the Ki is greater than 1000 µM.

Consider `COC(=O)c1ccccc1S(=O)(=O)Nc1ccc(Cl)cc1` [Compound 8], for which the Ki is greater than 1000 µM.

In the case of `COC(=O)c1ccccc1S(=O)(=O)Nc1ccc(Br)cc1` [Compound 9], the Ki was greater than 1000 µM.

With `COC(=O)c1ccccc1S(=O)(=O)Nc1ccc(C(F)(F)F)cc1` [Compound 10], the inhibition constant Ki was greater than 1000 µM.

Regarding `COC(=O)c1ccccc1S(=O)(=O)Nc1cccc([N+](=O)[O-])c1` [Compound 11], the Ki is greater than 1000 µM.

Turning to `COC(=O)c1ccccc1S(=O)(=O)Nc1ccc([N+](=O)[O-])cc1` [Compound 12], the Ki was greater than 1000 µM.

For the compound `COC(=O)c1ccccc1S(=O)(=O)Nc1ccc(C)cc1` [Compound 13], the inhibition constant Ki was greater than 1000 µM.

Take `COC(=O)c1ccccc1S(=O)(=O)Nc1c(C)cccc1C` [Compound 14]: the inhibition constant (Ki) is greater than 1000 µM.

On to `COC(=O)c1ccccc1S(=O)(=O)Nc1ccc(C(C)C)cc1` [Compound 15], for which the Ki is greater than 1000 µM.

`COC(=O)c1ccccc1S(=O)(=O)Nc1ccc(OC)cc1` [Compound 16]: the inhibition constant Ki was greater than 1000 µM.

For `O=C(O)c1ccccc1S(=O)(=O)Nc1ccccc1` [Compound 17], the Ki is greater than 1000 µM.

For `O=C(O)c1ccccc1S(=O)(=O)Nc1ccc(F)cc1` [Compound 18], the Ki is greater than 1000 µM.

For the compound `O=C(O)c1ccccc1S(=O)(=O)Nc1ccccc1Cl` [Compound 19], the Ki is greater than 1000 µM.

A further test addresses hCA II (Homo sapiens, UniProt P00918). Description: CA inhibition, stopped-flow CO2 hydrase assay, hCA II. It is filed as biochemical.
Conditions: not given
On the procedure: as §1
As to `CC(C)=CCN1C(=O)c2ccccc2S1(=O)=O` [Compound 1], the Ki is greater than 1000 µM.

On to `O=C1c2ccccc2S(=O)(=O)N1Cc1ccccc1Cl` [Compound 2], for which the “inhibitory activity against hCA II, in words” value is reported as “ineffective”.

In the case of `O=C1c2ccccc2S(=O)(=O)N1Cc1cccc(Cl)c1` [Compound 3], the “inhibitory activity against hCA II, in words” value is reported as “ineffective”.

Turning to `O=C(CN1C(=O)c2ccccc2S1(=O)=O)c1cccc([N+](=O)[O-])c1` [Compound 4], the “inhibitory activity against hCA II, in words” value is “ineffective”.

The same test, now with this note: Table 1, saccharin-based derivatives; recombinant enzyme, 15 min preincubation, pH 7.5.
On to `CC(C)=CCN1C(=O)c2ccccc2S1(=O)=O` [Compound 1], for which the inhibitory constant (Ki) was greater than 1000 µM.

As for `O=C1c2ccccc2S(=O)(=O)N1Cc1ccccc1Cl` [Compound 2], the inhibition constant (Ki) was greater than 1000 µM.

On to `O=C1c2ccccc2S(=O)(=O)N1Cc1cccc(Cl)c1` [Compound 3], for which the Ki was greater than 1000 µM.

In the case of `O=C(CN1C(=O)c2ccccc2S1(=O)=O)c1cccc([N+](=O)[O-])c1` [Compound 4], the Ki was greater than 1000 µM.

On to `COC(=O)c1ccccc1S(=O)(=O)Nc1ccccc1` [Compound 5], for which the Ki is greater than 1000 µM.

Turning to `COC(=O)c1ccccc1S(=O)(=O)Nc1ccc(F)cc1` [Compound 6], the inhibitory constant (Ki) is greater than 1000 µM.

As for `COC(=O)c1ccccc1S(=O)(=O)Nc1ccccc1Cl` [Compound 7], the Ki is greater than 1000 µM.

Consider `COC(=O)c1ccccc1S(=O)(=O)Nc1ccc(Cl)cc1` [Compound 8], for which the Ki was greater than 1000 µM.

Regarding `COC(=O)c1ccccc1S(=O)(=O)Nc1ccc(Br)cc1` [Compound 9], the Ki came to 689 µM.

Consider `COC(=O)c1ccccc1S(=O)(=O)Nc1ccc(C(F)(F)F)cc1` [Compound 10], for which the Ki is greater than 1000 µM.

Regarding `COC(=O)c1ccccc1S(=O)(=O)Nc1cccc([N+](=O)[O-])c1` [Compound 11], the Ki was greater than 1000 µM.

As to `COC(=O)c1ccccc1S(=O)(=O)Nc1ccc([N+](=O)[O-])cc1` [Compound 12], the Ki is greater than 1000 µM.

`COC(=O)c1ccccc1S(=O)(=O)Nc1ccc(C)cc1` [Compound 13]: the inhibitory constant (Ki) is greater than 1000 µM.

As to `COC(=O)c1ccccc1S(=O)(=O)Nc1c(C)cccc1C` [Compound 14], the Ki is greater than 1000 µM.

Consider `COC(=O)c1ccccc1S(=O)(=O)Nc1ccc(C(C)C)cc1` [Compound 15], for which the Ki was greater than 1000 µM.

As for `COC(=O)c1ccccc1S(=O)(=O)Nc1ccc(OC)cc1` [Compound 16], the Ki is greater than 1000 µM.

Regarding `O=C(O)c1ccccc1S(=O)(=O)Nc1ccccc1` [Compound 17], the Ki is greater than 1000 µM.

As for `O=C(O)c1ccccc1S(=O)(=O)Nc1ccc(F)cc1` [Compound 18], the Ki is greater than 1000 µM.

For the compound `O=C(O)c1ccccc1S(=O)(=O)Nc1ccccc1Cl` [Compound 19], the Ki was greater than 1000 µM.

The target in a further test is hCA IX (Homo sapiens, UniProt Q16790). Description: CA inhibition, stopped-flow CO2 hydrase assay, hCA IX.
Conditions: not given
It counts as biochemical. The protocol: as §1
Turning to `CC(C)=CCN1C(=O)c2ccccc2S1(=O)=O` [Compound 1], the affinity corresponds to a Ki of 0.39 µM.

Compound `O=C1c2ccccc2S(=O)(=O)N1Cc1cccc(Cl)c1` [Compound 3] showed a Ki of 0.3 µM.

`O=C(CN1C(=O)c2ccccc2S1(=O)=O)c1cccc([N+](=O)[O-])c1` [Compound 4] gave a Ki greater than 1000 µM.

Still in this test, the particulars now being: Table 1, saccharin-based derivatives; recombinant enzyme, 15 min preincubation, pH 7.5.
Regarding `CC(C)=CCN1C(=O)c2ccccc2S1(=O)=O` [Compound 1], the Ki was found to be 0.39 µM.

For the compound `O=C1c2ccccc2S(=O)(=O)N1Cc1ccccc1Cl` [Compound 2], the Ki came out at 0.3 µM.

Consider `O=C1c2ccccc2S(=O)(=O)N1Cc1cccc(Cl)c1` [Compound 3], for which the Ki was 0.1 µM.

As to `O=C(CN1C(=O)c2ccccc2S1(=O)=O)c1cccc([N+](=O)[O-])c1` [Compound 4], the inhibitory constant (Ki) was greater than 1000 µM.

Regarding `COC(=O)c1ccccc1S(=O)(=O)Nc1ccccc1` [Compound 5], the Ki is 59.6 µM.

With `COC(=O)c1ccccc1S(=O)(=O)Nc1ccc(F)cc1` [Compound 6], the Ki was 262 µM.

As for `COC(=O)c1ccccc1S(=O)(=O)Nc1ccccc1Cl` [Compound 7], the Ki came out at 428 µM.

Take `COC(=O)c1ccccc1S(=O)(=O)Nc1ccc(Cl)cc1` [Compound 8]: the Ki was found to be 955 µM.

As for `COC(=O)c1ccccc1S(=O)(=O)Nc1ccc(Br)cc1` [Compound 9], the Ki was found to be 6.7 µM.

With `COC(=O)c1ccccc1S(=O)(=O)Nc1ccc(C(F)(F)F)cc1` [Compound 10], the Ki worked out at 563 µM.

In the case of `COC(=O)c1ccccc1S(=O)(=O)Nc1cccc([N+](=O)[O-])c1` [Compound 11], the Ki is greater than 1000 µM.

Turning to `COC(=O)c1ccccc1S(=O)(=O)Nc1ccc([N+](=O)[O-])cc1` [Compound 12], the Ki is 62.8 µM.

Take `COC(=O)c1ccccc1S(=O)(=O)Nc1ccc(C)cc1` [Compound 13]: the Ki amounted to 68.2 µM.

Regarding `COC(=O)c1ccccc1S(=O)(=O)Nc1c(C)cccc1C` [Compound 14], the Ki came to 39.7 µM.

On to `COC(=O)c1ccccc1S(=O)(=O)Nc1ccc(C(C)C)cc1` [Compound 15], for which the Ki came out at 57.6 µM.

For the compound `COC(=O)c1ccccc1S(=O)(=O)Nc1ccc(OC)cc1` [Compound 16], the Ki worked out at 93.3 µM.

In the case of `O=C(O)c1ccccc1S(=O)(=O)Nc1ccccc1` [Compound 17], the Ki amounted to 46.5 µM.

With `O=C(O)c1ccccc1S(=O)(=O)Nc1ccc(F)cc1` [Compound 18], the Ki worked out at 45.8 µM.

Turning to `O=C(O)c1ccccc1S(=O)(=O)Nc1ccccc1Cl` [Compound 19], the Ki is greater than 1000 µM.

Another test addresses hCA XII (Homo sapiens, UniProt O43570). Description: CA inhibition, stopped-flow CO2 hydrase assay, hCA XII.
Conditions: not given
It counts as biochemical. On the procedure:
as §1
In the case of `CC(C)=CCN1C(=O)c2ccccc2S1(=O)=O` [Compound 1], the affinity, expressed as Ki, was 0.23 µM.

Turning to `O=C1c2ccccc2S(=O)(=O)N1Cc1ccccc1Cl` [Compound 2], the affinity, expressed as Ki, was 0.22 µM.

The compound `O=C1c2ccccc2S(=O)(=O)N1Cc1cccc(Cl)c1` [Compound 3] came in with a Ki of 1.3 µM.

Consider `O=C(CN1C(=O)c2ccccc2S1(=O)=O)c1cccc([N+](=O)[O-])c1` [Compound 4], for which the affinity, expressed as Ki, was 0.41 µM.

Staying with this test, now noted: Table 1, saccharin-based derivatives; recombinant enzyme, 15 min preincubation, pH 7.5.
For `COC(=O)c1ccccc1S(=O)(=O)Nc1ccccc1` [Compound 5], the Ki was greater than 1000 µM.

`COC(=O)c1ccccc1S(=O)(=O)Nc1ccc(F)cc1` [Compound 6]: the Ki was greater than 1000 µM.

Take `COC(=O)c1ccccc1S(=O)(=O)Nc1ccccc1Cl` [Compound 7]: the Ki is greater than 1000 µM.

For the compound `COC(=O)c1ccccc1S(=O)(=O)Nc1ccc(Cl)cc1` [Compound 8], the Ki was greater than 1000 µM.

As to `COC(=O)c1ccccc1S(=O)(=O)Nc1ccc(Br)cc1` [Compound 9], the Ki was greater than 1000 µM.

For the compound `COC(=O)c1ccccc1S(=O)(=O)Nc1ccc(C(F)(F)F)cc1` [Compound 10], the Ki was greater than 1000 µM.

Take `COC(=O)c1ccccc1S(=O)(=O)Nc1cccc([N+](=O)[O-])c1` [Compound 11]: the inhibition constant (Ki) was greater than 1000 µM.

Regarding `COC(=O)c1ccccc1S(=O)(=O)Nc1ccc([N+](=O)[O-])cc1` [Compound 12], the Ki is greater than 1000 µM.

For the compound `COC(=O)c1ccccc1S(=O)(=O)Nc1ccc(C)cc1` [Compound 13], the Ki was greater than 1000 µM.

`COC(=O)c1ccccc1S(=O)(=O)Nc1c(C)cccc1C` [Compound 14]: the Ki is greater than 1000 µM.

Take `COC(=O)c1ccccc1S(=O)(=O)Nc1ccc(C(C)C)cc1` [Compound 15]: the Ki was greater than 1000 µM.

`COC(=O)c1ccccc1S(=O)(=O)Nc1ccc(OC)cc1` [Compound 16]: the Ki was greater than 1000 µM.

Consider `O=C(O)c1ccccc1S(=O)(=O)Nc1ccccc1` [Compound 17], for which the Ki was greater than 1000 µM.

For the compound `O=C(O)c1ccccc1S(=O)(=O)Nc1ccc(F)cc1` [Compound 18], the Ki was greater than 1000 µM.

Regarding `O=C(O)c1ccccc1S(=O)(=O)Nc1ccccc1Cl` [Compound 19], the Ki was greater than 1000 µM.
